Experimental data: ChEMBL document CHEMBL4825715, “Novel METTL3 Modulators for Treating Acute Myeloid Leukemia (AML)” (ACS Med Chem Lett, 2021)

Key:
[1] = target: T1, N6-adenosine-methyltransferase catalytic subunit (Homo sapiens, UniProt Q86U44); test: Inhibition of METTL3-mediated m6A methylation in human […] cells assessed as reduction in mRNA level measured after 24 hrs by LC-MS/MS analysis; type: cell-based, MOLM-13
[2] = target: T1, N6-adenosine-methyltransferase catalytic subunit; test: Inhibition of METTL3 (unknown origin) using 3' biotinylated RNA (UCUGGACUAAA) and 3H-SAM as a substrate preincubated for 5 mins followed by substrate addition incubated for 30 mins by scintillation counting method

T1 sequence (Q86U44 whole entry): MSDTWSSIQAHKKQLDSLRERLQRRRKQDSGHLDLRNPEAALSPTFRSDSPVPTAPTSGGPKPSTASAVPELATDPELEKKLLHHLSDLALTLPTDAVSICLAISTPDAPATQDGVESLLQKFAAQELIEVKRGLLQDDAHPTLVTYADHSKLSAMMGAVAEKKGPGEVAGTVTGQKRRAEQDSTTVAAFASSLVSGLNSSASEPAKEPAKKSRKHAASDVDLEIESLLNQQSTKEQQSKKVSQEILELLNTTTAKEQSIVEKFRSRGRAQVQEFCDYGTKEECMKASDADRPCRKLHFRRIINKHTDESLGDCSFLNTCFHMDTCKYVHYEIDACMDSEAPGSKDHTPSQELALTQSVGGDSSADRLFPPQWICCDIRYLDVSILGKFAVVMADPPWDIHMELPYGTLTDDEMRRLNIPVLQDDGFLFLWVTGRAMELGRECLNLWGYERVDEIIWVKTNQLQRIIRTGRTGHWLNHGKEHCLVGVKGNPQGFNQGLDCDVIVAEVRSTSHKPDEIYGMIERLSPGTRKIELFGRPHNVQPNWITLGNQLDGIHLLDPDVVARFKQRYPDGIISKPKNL

SMILES | IC50 [1] [nM] | IC50 [2] [nM]
CCNc1ccc2ccc(OC[C@H]3O[C@@H](n4cc(C5CCCC5)c5c(N)ncnc54)[C@H](O)[C@@H]3O)cc2n1 | < 1000 | < 10
Nc1ncnc2c1c(-n1cccn1)cn2[C@@H]1O[C@H](COc2ccc3ccc(N4CCC4)nc3c2)[C@@H](O)[C@@H]1F | < 1000 | < 10
CNc1ccc2ccc(OC[C@H]3O[C@@H](n4cc(-c5ccc(C)o5)c5c(N)ncnc54)[C@@H](F)[C@@H]3O)cc2n1 | < 1000 | < 10
Nc1ncnc2c1c([C@@H]1CCCO1)cn2[C@@H]1O[C@H](COc2ccc3ccc(N4CCC4)nc3c2)[C@@H](O)[C@@H]1F | < 1000 | < 10
Cc1coc(-c2cn([C@@H]3O[C@H](COc4ccc5ccc(N6CCC6)nc5c4)[C@@H](O)[C@@H]3F)c3ncnc(N)c23)n1 | < 1000 | < 10
CNc1ccc2ccc(OC[C@H]3O[C@@H](n4cc(-c5ccn(C)n5)c5c(N)ncnc54)[C@H](O)[C@@H]3O)cc2n1 | < 1000 | < 10
